The subject of test [1] is Corn Earworm (Helicoverpa zea). Put plainly: Insecticidal diet-surface test for corn earworm. The format is in vivo. Conditions: 120 h, read-out: HELIZE AVG % Mortality (50 μg/cm^2). The method, then: (§1) The compounds identified in Table 1 were tested against beet armyworm and corn earworm as follows:
(§2) Insecticidal Test for Corn Earworm (Helicoverpa zea) and Beet Armyworm (Spodoptera exigua).
(§3) To prepare test solution, the test compound was formulated at 2000 ppm solution as 4 mg/2 mL of 9 acetone:1 tap water. 50 μL of the 2000 ppm (equivalent to 50 μg/cm^2 dose on diet surface area) test solution was pipetted upon the surface of 1 mL of lepidopteran diet (Southland Multi-Species Lepidopteran Diet) contained in each of eight wells per insect species (one well=1 replication). A second-instar corn earworm and beet armyworm was placed upon the treated diet in each well once the solvent had air-dried. Trays containing the treated diet and larvae were covered and then held in a growth chamber at 25° C., 50-55% RH, and 16 hr light:8 hr dark for 5 days. Observation were conducted 5 days after treatment and infestation. The number of dead insects of 8 per species per treatment was then determined and the results are given in Table 2 as a percent control at a dose of […].

Test [2] deals with Beet Armyworm (Spodoptera exigua). Put plainly: Insecticidal diet-surface test for beet armyworm. Conditions: 120 h, read-out: LAPHEG AVG % Mortality (50 μg/cm^2). The format is in vivo. As to the method:
as §1, §2, §3

[3] abbreviates: second-instar larvae on treated diet, 50 μg/cm^2 on diet surface, 5 days after treatment, 8 insects per treatment.

Where two headings read alike, the source gives them in different places.

Regarding `COCN(C(=O)N(COCc1ccccc1)c1nc(OCC(F)(F)F)cc(OCC(F)(F)F)n1)c1ccc(C(F)(F)F)nc1` [Compound 89], the mortality at 50 µg/cm2 in test [1] (setting [3]) and in test [2] (setting [3]) was 100% in each case.

Regarding `CCOCN(C(=O)Nc1nc(OCC(F)(F)F)cc(OCC(F)(F)F)n1)c1ccc(C(F)(F)F)nc1` [Compound 90], the mortality at 50 µg/cm2 in test [1] (setting [3]) and in test [2] (setting [3]) was 100% in each case.

As to `COCN(C(=O)Nc1nc(OCC(F)(F)F)cc(OCC(F)(F)F)n1)c1ccc(C(F)(F)F)nc1` [Compound 91], the mortality at 50 µg/cm2 in test [1] (setting [3]) and in test [2] (setting [3]) was 100% in each case.

In the case of `CN(C(=O)Nc1nc(OCC(F)(F)F)cc(OCC(F)(F)F)n1)c1ccc(C#N)c(Cl)c1` [Compound 92], the mortality at 50 µg/cm2 in test [1] and in test [2] was 100% in each case.

Take `O=C(Nc1nc(OCC(F)(F)F)cc(OCC(F)(F)F)n1)N(c1ccc(OC(F)(F)F)cc1)C(F)(F)F` [Compound 93]: the mortality at 50 µg/cm2 in test [1] (setting [3]) and in test [2] (setting [3]) was 100% in each case.

As to `CN(C(=O)Nc1nc(OCC(F)(F)F)cc(OCC(F)(F)F)n1)c1ccc(S(=O)(=O)C(F)(F)F)cc1` [Compound 94], the mortality at 50 µg/cm2 in test [1] (setting [3]) and in test [2] (setting [3]) was 100% each time.

Take `O=C(Nc1nc(OCC(F)(F)F)cc(OCC(F)(F)F)n1)N(CCF)c1ccc(OC(F)(F)F)cc1` [Compound 95]: the mortality at 50 µg/cm2 in test [1] (setting [3]) and in test [2] (setting [3]) was 100% in each case.

For the molecule `[2H]C([2H])([2H])N(C(=O)Nc1nc(OCC(F)(F)F)cc(OCC(F)(F)F)n1)c1ccc(C(F)(F)F)cc1` [Compound 96], the mortality at 50 µg/cm2 in test [1] (setting [3]) and in test [2] (setting [3]) was 100% in each case.

`O=C(Nc1ccc(C(F)(F)F)cc1)Nc1nc(Cl)cc(OCC(F)(F)F)n1` [Compound 97]: the mortality at 50 µg/cm2 in test [1] (setting [3]) and in test [2] (setting [3]) was 100% throughout.

For `CCNCCNc1cc(OCC(F)(F)F)nc(NC(=O)Nc2ccc(C(F)(F)F)cc2)n1` [Compound 98], the mortality at 50 µg/cm2 in test [1] (setting [3]) and in test [2] (setting [3]) was 100% in each case.

As to `O=C(Nc1ccc(C(F)(F)F)cc1)Nc1nc(NCC(F)(F)F)cc(OCC(F)(F)F)n1` [Compound 99], the mortality at 50 µg/cm2 in test [1] (setting [3]) and in test [2] (setting [3]) was 100% throughout.

`CCOc1cc(OCC(F)(F)F)nc(NC(=O)Nc2ccc(C(F)(F)F)cc2)n1` [Compound 100]: the mortality at 50 µg/cm2 in test [1] (setting [3]) and in test [2] (setting [3]) was 100% throughout.

As for `CC1(COc2cc(OCC(F)(F)F)nc(NC(=O)Nc3ccc(C(F)(F)F)cc3)n2)CC1(Cl)Cl` (stereo not drawn) [Compound 101], the mortality at 50 µg/cm2 in test [1] (setting [3]) and in test [2] (setting [3]) was 100% throughout.

With `O=C(Nc1ccc(C(F)(F)F)cc1)Nc1nc(OCC(F)(F)F)cc(C(F)(F)F)n1` [Compound 102, N-(4-trifluoromethylphenyl)-N′-[4-trifluoromethyl-6-(2,2,2-trifluoroethoxy)pyrimidin-2-yl]urea], the figures for the mortality at 50 µg/cm2 in test [1] (setting [3]) and in test [2] (setting [3]) were 100% and 0%, respectively.

On to `CCOc1cc(OCC(F)(F)F)nc(NC(=O)N(C)c2ccc(Br)cc2)n1` [Compound 103, N-(4-bromophenyl)-N′-[4-ethoxy-6-(2,2,2-trifluoroethoxy)-pyrimidin-2-yl]-N-methylurea], for which the mortality at 50 µg/cm2 came out at 100% in test [1] (setting [3]) and 25% in test [2] (setting [3]).

In the case of `O=C(Nc1ccc(OC(F)(F)F)cc1)Nc1nc(OCC(F)(F)C(F)(F)F)cc(OCC(F)(F)C(F)(F)F)n1` [Compound 104], the mortality at 50 µg/cm2 in test [1] (setting [3]) stood at 100%; in test [2] (setting [3]) it was 0%.

As for `O=C(Nc1ccc(C(F)(F)F)cc1)Nc1cc(OCC(F)(F)F)nc(OCC(F)(F)F)n1` [Compound 105], the mortality at 50 µg/cm2 in test [1] (setting [3]) turned out to be 0%; in test [2] (setting [3]), 100%.

Regarding `CN(C(=O)Nc1cc(OCC(F)(F)F)nc(OCC(F)(F)F)n1)c1ccc(OC(F)(F)F)cc1` [Compound 106], the mortality at 50 µg/cm2 in test [1] (setting [3]) and in test [2] (setting [3]) was 100% in each case.

`CN(C(=O)Nc1cc(OCC(F)(F)F)nc(OCC(F)(F)F)n1)c1ccc(C(F)(F)F)cc1` [Compound 107]: the mortality at 50 µg/cm2 in test [1] (setting [3]) and in test [2] (setting [3]) was 100% each time.

Regarding `CN(C(=O)Nc1cc(OCC(F)(F)F)nc(OCC(F)(F)F)n1)c1ccc(Br)cc1` [Compound 108], the mortality at 50 µg/cm2 in test [1] (setting [3]) and in test [2] (setting [3]) was 100% throughout.

Turning to `CN(C(=O)Nc1cc(OCC(F)(F)F)nc(OCC(F)(F)F)n1)c1ccc(Br)nc1` [Compound 109], the values for the mortality at 50 µg/cm2 in test [1] (setting [3]) and in test [2] (setting [3]) were 25% and 88%, respectively.

Consider `CN(C(=O)Nc1cc(OCC(F)(F)F)nc(OCC(F)(F)F)n1)c1ccc(Cl)nc1` [Compound 110], for which the mortality at 50 µg/cm2 in test [1] (setting [3]) was determined as 0%; in test [2] (setting [3]), 100%.

`CN(C(=O)Nc1cc(OCC(F)(F)F)nc(OCC(F)(F)F)n1)c1ccc([N+](=O)[O-])cc1` [Compound 111]: the figures for the mortality at 50 µg/cm2 in test [1] (setting [3]) and in test [2] (setting [3]) were 88% and 100%, respectively.

`CN(C(=O)Nc1cc(OCC(F)(F)F)nc(OCC(F)(F)F)n1)c1ccc(Cl)cc1` [Compound 112]: the values for the mortality at 50 µg/cm2 in test [1] (setting [3]) and in test [2] (setting [3]) were 100% and 50%, respectively.

For `CN(C(=O)Nc1cc(OCC(F)(F)F)nc(OCC(F)(F)F)n1)c1ccc(C(F)(F)F)nc1` [Compound 113], the mortality at 50 µg/cm2 in test [1] (setting [3]) was 0%; in test [2] (setting [3]) it was 100%.

On to `O=C(Nc1cc(OCC(F)(F)F)nc(OCC(F)(F)F)n1)N(CCF)c1ccc(OC(F)(F)F)cc1` [Compound 114], for which the mortality at 50 µg/cm2 in test [1] (setting [3]) and in test [2] (setting [3]) was 100% in each case.

Turning to `O=C(Nc1ccc(OC(F)(F)F)cc1)Nc1cc(OCC(F)(F)F)nc(OCC(F)(F)F)n1` [Compound 115], the mortality at 50 µg/cm2 is 75% in test [1] (setting [3]) and 38% in test [2] (setting [3]).

Take `O=C(Nc1ccc(C(F)(F)F)cc1)Nc1nc(OCC(F)(F)F)nc(OCC(F)(F)F)n1` [Compound 116]: the mortality at 50 µg/cm2 was determined as 0% in test [1] (setting [3]) and 100% in test [2] (setting [3]).

`O=C(Nc1ccc(Br)cc1)Nc1nc(OCC(F)(F)F)nc(OCC(F)(F)F)n1` [Compound 117]: the mortality at 50 µg/cm2 in test [1] (setting [3]) came to 0%; in test [2] (setting [3]), 100%.

For `CN(C(=O)Nc1nc(OCC(F)(F)F)nc(OCC(F)(F)F)n1)c1ccc(C(F)(F)F)cc1` [Compound 118, N′-[4,6-bis(2,2,2-trifluoroethoxy)-1,3,5-triazin-2-yl]-N-(4-trifluoromethylphenyl)-N-methylurea], the mortality at 50 µg/cm2 in test [1] (setting [3]) and in test [2] (setting [3]) was 100% each time.

Turning to `CN(C(=O)Nc1nc(OCC(F)(F)F)nc(OCC(F)(F)F)n1)c1ccc(Br)cc1` [Compound 119], the mortality at 50 µg/cm2 amounted to 88% in test [1] (setting [3]) and 100% in test [2] (setting [3]).

With `CN(C(=O)Nc1nc(OCC(F)(F)F)nc(OCC(F)(F)F)n1)c1ccc(OC(F)(F)C(F)F)cc1` [Compound 120], the mortality at 50 µg/cm2 in test [1] (setting [3]) and in test [2] (setting [3]) was 100% each time.

`CN(C(=O)Nc1nc(OCC(F)(F)F)nc(OCC(F)(F)F)n1)c1ccc(Cl)cc1` [Compound 121, N′-[4,6-bis(2,2,2-trifluoroethoxy)-1,3,5-triazin-2-yl]-N-(4-chlorophenyl)-N-methylurea]: the mortality at 50 µg/cm2 in test [1] (setting [3]) and in test [2] (setting [3]) was 100% in each case.

With `CN(C(=O)Nc1nc(OCC(F)(F)F)cc(OCC(F)(F)F)n1)c1ccc(C(F)(F)F)cn1` [Compound 122], the figures for the mortality at 50 µg/cm2 in test [1] (setting [3]) and in test [2] (setting [3]) were 88% and 100%, respectively.

For `CN(C(=O)Nc1nc(OCC(F)(F)F)cc(OCC(F)(F)F)n1)c1ccc(Br)cn1` [Compound 123], the mortality at 50 µg/cm2 in test [1] (setting [3]) and in test [2] (setting [3]) was 100% in each case.

Regarding `CN(C(=O)Nc1nc(OCC(F)(F)F)cc(OCC(F)(F)F)n1)c1ccc(Cl)cn1` [Compound 124], the mortality at 50 µg/cm2 in test [1] (setting [3]) and in test [2] (setting [3]) was 100% in each case.

For the molecule `CN(C(=O)Nc1nc(OCC(F)(F)F)cc(OCC(F)(F)F)n1)c1ccc(F)cn1` [Compound 125], the results for the mortality at 50 µg/cm2 in test [1] (setting [3]) and in test [2] (setting [3]) were 100% and 88%, respectively.

Consider `CN(C(=O)Nc1nc(OCC(F)(F)F)cc(OCC(F)(F)F)n1)c1ccc(I)cn1` [Compound 126], for which the mortality at 50 µg/cm2 in test [1] (setting [3]) and in test [2] (setting [3]) was 100% throughout.

In the case of `N#Cc1ccc(NC(=O)Nc2nc(OCC(F)(F)F)cc(OCC(F)(F)F)n2)nc1` [Compound 127], the mortality at 50 µg/cm2 in test [1] (setting [3]) stood at 100%; in test [2] (setting [3]), 0%.

For `CN(C(=O)Nc1nc(OCC(F)(F)F)cc(OCC(F)(F)F)n1)c1ccc(C#N)cn1` [Compound 128], the mortality at 50 µg/cm2 was determined as 100% in test [1] (setting [3]) and 88% in test [2] (setting [3]).

Consider `FC(F)(F)COc1cc(OCC(F)(F)F)nc(NC(=S)Nc2ccc(Br)cc2)n1` [Compound 129], for which the mortality at 50 µg/cm2 in test [1] (setting [3]) and in test [2] (setting [3]) was 100% each time.

On to `FC(F)(F)COc1cc(OCC(F)(F)F)nc(NC(=S)Nc2ccc(C(F)(F)F)cc2)n1` [Compound 130], for which the mortality at 50 µg/cm2 in test [1] (setting [3]) and in test [2] (setting [3]) was 100% each time.
